For 88 molecules, melting point results are on record in a melting point compilation (Tetko et al.; mined from patent text by program, amines drawn as free bases though some values may be those of a salt).

Non-standard residues stand in square brackets, D forms with d. Residues, ends and D or L forms follow the SMILES beside them. ξ: configuration not given here. *: point of attachment. ξQ = NC(=O)CCC(N)C(=O)O; Cbz = O=C(OCc1ccccc1)* Bounds are passed on as bounds.

One may read the melting point as the temperature, or range, at which the solid turns liquid.

The molecule `CC(CNC(=O)C=CC=Cc1ccccc1)C(=O)NO` (stereo not drawn) registered a melting point of 178 to 179 °C.
`O=C(O)c1ccc(-c2ccc(Cl)s2)nc1` registered a melting point of over 260 °C.
For the molecule `COc1ccc(C(=O)c2cc(F)ccc2F)c(O)c1`, the melting point stood at 109 °C.
The same measure for `CC1(C)CC2(CC(C)(C)N1)NC(C)(CO)CO2` (stereo not drawn): 90 to 92 °C.
`CCOC(=O)C1=C(COCC(=O)O)NC(C)=C(C(=O)OC)C1c1ccccc1Cl` (stereo not drawn) registered a melting point of 150 to 154 °C.
Take `c1ccc(-c2ccccc2OCCCCOc2ccccc2-c2ccccc2)cc1`: the melting point is 62 to 67 °C.
On to `O=C1c2ccc(F)cc2C(=O)N1CCN1CCN(c2n[nH]c3cc(F)ccc23)CC1`, for which the melting point lay within 282 to 285 °C.
On to `NC(CN1C(=O)C2(COc3cc4c(cc32)OCO4)c2ccccc21)=NO` (stereo not drawn), for which the melting point was in the range of 235 to 238 °C.
`N#Cc1ccc(-c2ccc(-c3ccoc3)cc2)cc1` returned a melting point of 199 to 203 °C.
In the case of `CC1(C)Oc2ccc([N+](=O)[O-])cc2C(n2ccccc2=O)=C1CBr` it was 221 °C; in that of `CC1=C(C(=O)OCC2CCN(Cc3ccccc3)C2)C(c2cccc([N+](=O)[O-])c2)c2c(ccnc2OC(C)C)N1` (stereo not drawn), 125 to 128 °C.
The same measure for `O=C(NCCN1CCOCC1)Oc1cccc(C2CCCN2Cc2ccccc2)c1` (stereo not drawn): 74 to 77 °C.
The molecule `CCOC(=O)C(=CNC1CC1)C(=O)c1c(F)c(C)c(F)c(F)c1[N+](=O)[O-]` had a melting point of 115 to 116 °C.
Molecule `CN1C(=O)CC[C@]2(C)c3ccc(-c4ccc5c(c4)OCO5)cc3CC[C@@H]12` came in with a melting point of 146 to 152 °C.
The same measure for `O=[N+]([O-])c1ccc(F)c(Br)c1F`: 50 to 51.5 °C.
For the molecule `O=c1ccc(-c2nc3ccccc3s2)cn1Cc1ccc(Cl)c(F)c1`, the melting point stood at 164 °C.
With `O=C(/C=C/c1ccc2ccccc2c1)N1CCN(Cc2cccc(CN3CCN(C(=O)/C=C/c4ccc5ccccc5c4)CC3)n2)CC1`, the melting point fell in the range of 200 to 202 °C.
`CCCOc1ccccc1-c1nc2nc(NN)ncc2c(=O)[nH]1` yielded a melting point of 219 to 220 °C.
Turning to `COc1ccc(-c2ccc(C=O)cc2)cc1`, the melting point is 99 to 100 °C.
`CCc1nsc(NC(=O)C(C)c2ccc3oc(-c4c(Cl)cccc4Cl)nc3c2)c1Cl` (stereo not drawn) had a melting point of 180 to 183 °C.
`O=C(CN1CCN(C(c2ccc(F)cc2)c2ccc(F)cc2)CC1)NC1(C(=O)O)Cc2ccc(-c3ccc(Cl)cc3)cc2C1` (stereo not drawn) returned a melting point of 184 °C.
The molecule `O=C1CCC(c2c[nH]c3cccc(F)c23)CC1` had a melting point of 104 to 106 °C.
For `Clc1c(Cl)c(Cl)c2c(nc(Cl)n2COCCOCc2ccccc2)c1Cl`, the melting point turned out to be 95 °C.
`Cc1cccc(-c2nc3cccnn3c2-c2ccnc(NC(=O)Nc3ccccc3)c2)c1`: the melting point was in the range of 247 to 249 °C.
Consider `Cc1[nH]cnc1CN1CCC(N)=CC1=O`, for which the melting point fell in the range of 268 to 271 °C.
`O=C1CCCN1Cc1ccc2ccn(C3CCN(CCc4ccc(F)cc4)CC3)c2c1`: the melting point lay within 106 to 108 °C.
In the case of `CCCc1c(SCCCOc2ccc3c(=O)cc(CCC(=O)O)oc3c2CCC)ccc(C(C)=O)c1O` it was 122 to 124 °C.
In the case of `C[C@@H](n1cnc2cc(Cl)ccc2c1=O)[C@](O)(Cn1cncn1)c1ccccc1F` it was 124 to 129 °C; in that of `CC(=O)n1cc(Cn2ccnc2)c2ccccc21`, 122 °C.
The same measure for `Cn1cc(C(=O)NCCC2CCN(S(=O)(=O)NC(=O)NC34CC5CC(CC(C5)C3)C4)CC2)c(=O)n(C)c1=O`: 224 to 226 °C; for `CCCc1cc(=O)n2cccc(C)c2n1`: 59 to 60 °C.
On to `CN(C)Cc1nc2n(n1)-c1cccnc1N(c1ccccc1)C2`, for which the melting point lay within 135 to 139 °C.
The molecule `CCOC(=O)C(O)c1cc(Cl)cc2cccnc12` (stereo not drawn) returned a melting point of 121 to 124 °C.
Consider `CCCc1c(OC(C)=O)ccc2oc(Cc3ccc(OC)cc3)c(C)c12`, for which the melting point lay in the range of 39 to 41 °C.
As to `CCCC(=O)c1cc2nc(CO)n(C)c2cc1C`, the melting point turned out to be 142 °C.
`Cc1ccc(S(=O)(=O)n2ccc3c(C=O)cccc32)cc1` had a melting point of 144 to 146 °C.
Regarding `CCc1c(Cl)c2ccccn2c1C(=O)c1ccc(O)cc1`, the melting point was 179 °C.
As for `COc1ccc(-c2cnn3c(-c4cccc(NC(=O)CC(C)C)c4)ccnc23)cc1C=O`, the melting point fell in the range of 187 to 189 °C.
Turning to `CCOC(=O)c1cc2cccc(OCc3ccccc3)c2cc1O`, the melting point was 98 to 115 °C.
With `O=C(O)c1cc(N2C(=O)C(c3ccccc3)=C(c3ccccc3)C2=O)ccc1O`, the melting point was in the range of 249 to 250 °C.
`CC(Nc1ccc2c(n1)CC1CCCCC1C2=O)c1ccccc1` (stereo not drawn) yielded a melting point of 156 to 158 °C.
On to `COc1ccc(Cn2c(=O)c3cc([N+](=O)[O-])ccc3n(CCCCBr)c2=O)cc1`, for which the melting point is 143 to 144 °C.
In the case of `O=C(NC1CC1c1ccccc1)C1Cc2ccccc2N1S(=O)(=O)c1ccc(-c2ccc(F)cc2)cc1` (stereo not drawn), the melting point stood at 80 °C.
`NCCCCn1c(-c2ccccc2)nc2c(N)nc3ccccc3c21` gave a melting point of 175 to 177 °C.
The same measure for `CCN(CC)C(=O)c1cc(-c2ccccc2)c(=O)n2c1-c1ccccc1C2`: 170 to 172 °C; for `Cc1[nH]c(C#N)c(C)c1-c1ccnc(Nc2cccc([N+](=O)[O-])c2)n1`: 258 to 259 °C.
`FC(F)Oc1ccc(-c2nc3ccc(OC(F)(F)F)cc3[nH]2)cc1` gave a melting point of 185 to 187 °C.
The molecule `COc1cc(OCC(=O)O)c(C)cc1SCCc1ccc(-c2ccc(C(F)(F)F)cc2)cc1` came in with a melting point of 169 to 171 °C.
In turn, `Cc1ccc(C)c(-c2cccc(C=CC(=O)O)c2)c1` registered a melting point of 156 to 157 °C.
In turn, `O=C(c1ccc(F)cc1)n1c2c(c3ccccc31)CC(C(=O)O)(C(=O)O)CC2` had a melting point of 190 to 195 °C.
`CCn1c(-c2c(Cl)cccc2Cl)nc(-c2ccnc(OC)c2)c1-c1ccc(Cl)cc1` displayed a melting point of 138 to 140 °C.
Consider `Clc1ccc(-c2cc(OCCCN3CCCCC3)[nH]n2)cc1`, for which the melting point amounted to 140 °C.
Consider `Oc1ccc2c(c1O)Cc1ccccc1-2`, for which the melting point lay in the range of 159 to 162 °C.
`CCCCCCCCS(=O)(=O)C(Cc1ccc(OCCN2CCCCC2)cc1)C(=O)NO` (stereo not drawn) had a melting point of 69 to 70 °C.
In the case of `c1cc(-n2cccc2)cc(-n2cnc3cc(-c4ccoc4)ccc32)c1` it was 144 to 145 °C; in that of `C#CCOc1c(CO)ccc2ccccc12`, 65 to 68 °C; in that of `C#Cc1c[nH]c2ncnc(N3CCCCC3)c12`, 179 to 181 °C.
The same measure for `CC(C)(C)c1cc(CSP(=S)(C2CCCCC2)C2CCCCC2)cc(C(C)(C)C)c1O`: 129 to 131 °C; for `NC1CC2CCCC(C1)N2Cc1ccccc1` (stereo not drawn): 134 °C; for `C=C1CC2C3CCC4=CC(=O)C=CC4(C)C3=CCC2(C)C1(O)C(C)=O` (stereo not drawn): 185 to 190 °C.
The molecule `Cc1cc(CCCCCCCCOc2ccc(C3=NCCO3)cc2Cl)on1` displayed a melting point of 63 to 64 °C.
`CCCn1cc2c(C3C(=O)Nc4ccc(C#N)cc43)nc(NCCc3cccnc3)nc2n1` (stereo not drawn) showed a melting point of 302 to 305 °C.
In the case of `CN(O)C(=O)Nc1ccc(S(C)(=O)=O)cc1` it was 198 °C.
With `CNc1nc(Cl)ncc1[N+](=O)[O-]`, the melting point was 90 to 91 °C.
For the molecule `O=C(NS(=O)(=O)NCCc1cccs1)OCc1ccccc1`, the melting point was in the range of 129 to 131 °C.
In the case of `COC(=O)c1cccc([N+](=O)[O-])c1N`, the melting point was 92 to 93 °C.
In turn, `CCS(=O)(=O)CCC(=O)NNC(=O)N1Cc2cc(Cl)ccc2Oc2ccccc21` showed a melting point of 184 to 185 °C.
`FC(F)(F)c1ccc(-c2cc(C(F)(F)F)n3nccc3n2)cc1` returned a melting point of 110 to 111 °C.
In turn, `O=C(Oc1ccccc1)N1Cc2ccccc2C2(Cc3ccc(Cl)cc3O2)C1` (stereo not drawn) showed a melting point of 138 to 140 °C.
In turn, `Nc1ccc2c(c1)CCc1cc(=O)[nH]nc1-2` displayed a melting point of 290 to 292 °C.
In the case of `COc1ccnc(CCc2nc3cc(-c4ccc(S(=O)(=O)N(C)C)cc4C)cnc3[nH]2)c1` it was 179 to 180 °C; in that of `CC(C)(C)c1ccc(-c2ccc(C(=O)N=[N+]=[N-])s2)cc1`, 162 to 164 °C.
The same measure for `CCCCS(=O)(=O)C1CC(=O)N1CC(=O)CCc1ccccc1` (stereo not drawn): 93 to 94 °C.
Take `C1=CNc2c(ccc3ncccc23)C=N1`: the melting point fell in the range of 169 to 171 °C.
`CCOC(=O)c1ccc2cc(N=[N+]=[N-])ccn2c1=O` had a melting point of 145 to 150 °C.
Molecule `CCOC(=O)n1c2ccccc2c(=O)n1CSc1ccccc1` showed a melting point of 87 to 88 °C.
On to `COc1ccc(/C=C/c2ccncc2)cc1OC1CCCC1`, for which the melting point amounted to 108 °C.
Turning to `Fc1cc(Br)c2ccccc2c1Cl`, the melting point fell in the range of 75 to 76 °C.
`COc1cc(OCc2ccncc2)ccc1/C=C/c1cc(/C=C/c2ccc3[nH]ccc3c2)n[nH]1` displayed a melting point of 133 to 141 °C.
In the case of `CC(C)(C)C(=O)NS(=O)(=O)c1cccc(N)c1` it was 147 to 150 °C; in that of `COC(=O)CNC(=O)CNC(=O)C(CCC(N)=O)NC(=O)OCc1ccccc1` (stereo not drawn) (Cbz-[ξQ]-Gly-Gly-OMe), 129 to 134 °C; in that of `CN(C)CCOCc1ccc2[nH]nc(S(=O)(=O)c3cccc4ccccc34)c2c1`, over 200 °C.
`COc1ccc2c(c1)cc(C1(O)C=CC(=O)C=C1)n2S(=O)(=O)c1ccccc1` came in with a melting point of 126 to 128 °C.
As for `CC(C)c1[nH]cnc1CO`, the melting point was in the range of 121 to 123 °C.
With `NC(=O)c1cc2c(OCCCN3CCN(c4cc(N5CCCC5)nc(N5CCCC5)n4)CC3)cccc2[nH]1`, the melting point lay within 151 to 152 °C.
For the molecule `CC(=O)OCC1OC(n2c3ncccc3c3c4c(n5cncc5c32)C(=O)N(C)C4=O)C(OC(C)=O)C(OC(C)=O)C1OC(C)=O` (stereo not drawn), the melting point worked out at 204 °C.
In turn, `O=C(O)Cc1ccc(Cn2nc(-c3ccccc3)c(Cc3cc4c(cc3Cl)OCO4)c2C(=O)O)cc1` displayed a melting point of under 45 °C.
`Cc1conc1-c1nnc2c3ccccc3c(OCc3ccccn3)nn12`: the melting point worked out at 164 °C.
